Results taken from patent publication US20220387457A1 (Qlaris Bio, Inc., priority 2020, published 2022).
Where two headings read alike, the source gives them in different places.

What was measured:
[1] = Toxicokinetics after escalating intravenous doses of CKLP1 in beagles; type: in vivo, beagle dog; conditions: beagle, dog, in vivo, iv
Experimental: Two beagles (one male and one female) were intravenously injected with escalating doses of CKPL1 (0.05 mg/kg, 0.5 mg/kg, 1.5 mg/kg, 3 mg/kg, and 5 mg/kg) to assess the toxicity of CKLP1. The injection was done through the cephalic vein and CKLP1 was administered in a phosphate buffered saline solution ((0.096% sodium phosphate dibasic, 0.089% sodium dihydrogen orthophosphate monohydrate, 0.83% sodium chloride) pH 6.5±0.1 in sterile water for injection USP). The dosing schedule is shown below in Table 3.
The following parameters and endpoints were evaluated: mortality, clinical observations, body and organ weights, and food consumption. Bioanalytical samples for toxicokinetic parameters (for both CKLP1 and leveromakalim) were collected after each dose level (days 1, 3, 8, 10, and 14) at predose, 1, 3, 6, 8, and 24 hours postdose. Animals were released from the study after completion of the bioanalytical sample collection schedule.
Toxicokinetics (TK) were determined based on the individual exposures for each animal on each sampled study day (days 1, 3, 8, 10, and 14). […] Predose samples had no quantifiable exposure in any animal on any day, with the exception of the female dog on day 10. The predose concentration for the female dog on day 10 was excluded from the TK analysis in order to allow for estimation of the IV C0.

[2] = Plasma pharmacokinetics, 28-day topical ophthalmic dosing in beagle dogs; conditions: beagle, dog, in vivo
Experimental: In the study, dogs (3 males and 3 females) received bilateral daily topical administration of 40 μL/eye of 2.0%, 4.0%, or 8.0% as measured in mg/mL (equivalent to 0.8, 1.6, or 3.2 mg CKLP1 per eye) of CKLP1 in phosphate buffered saline. Based on an average male dog weight of 7.9 kg at the start of the study, these doses were equivalent to 0.20 mg/kg, 0.41 mg/kg, or 0.81 mg/kg and based on an average female dog weight of 6.0 kg at the start of the study, these doses were equivalent to 0.27 mg/kg, 0.53 mg/kg, or 1.07 mg/kg. Blood was collected for toxicokinetic analysis pre-dose and at 1, 2, 4, 8, 12, and 24 hours post dosing on days 1 and 28. In addition, 2 animals of each gender were allowed 336 hours (14 days) of recovery time following the final dose, at which point final blood samples were obtained.

[3] = female, topical or ocular, 3.2 mg
[4] = male, topical or ocular, 1.6 mg

CC1(C)Oc2ccc(C#N)cc2[C@@H](N2CCCC2=O)[C@@H]1O [Levcromakalim, levcromakalim, reference compound]
AUC(0-t) ([1]; both sexes, 3 mg/kg, read-out: AUCTlast at MTD, sex-combined): 431 ng·h/mL
Cmax ([1]; both sexes, 3 mg/kg, read-out: Cmax at MTD, sex-combined): 35.5 ng/mL
AUCTlast ([1]; female, 0.5 mg/kg): 81.3 ng·h/mL
T1/2 ([1]; female, 0.5 mg/kg): 10.3 h
AUC(0-inf) ([1]; female, 1.5 mg/kg): 272 ng·h/mL
AUCTlast ([1]; female, 1.5 mg/kg): 241 ng·h/mL
Cmax ([1]; female, 1.5 mg/kg): 15.6 ng/mL
T1/2 ([1]; female, 1.5 mg/kg): 7.58 h
Tmax ([1]; female, 1.5 mg/kg): 3.00 h
AUC(0-inf) ([1]; female, 3 mg/kg): 404 ng·h/mL
AUCTlast ([1]; female, 3 mg/kg): 386 ng·h/mL
Cmax ([1]; female, 3 mg/kg): 28.3 ng/mL
T1/2 ([1]; female, 3 mg/kg): 5.07 h
Tmax ([1]; female, 3 mg/kg): 6.00 h
AUCTlast ([1]; female, 5 mg/kg): 1040 ng·h/mL
T1/2 ([1]; female, 5 mg/kg): 7.82 h
AUCTlast ([1]; male, 0.05 mg/kg): 5.04 ng·h/mL
T1/2 ([1]; male, 0.05 mg/kg): 9.66 h
AUCTlast ([1]; male, 0.5 mg/kg): 45.5 ng·h/mL
T1/2 ([1]; male, 0.5 mg/kg): 6.89 h
AUC(0-inf) ([1]; male, 1.5 mg/kg): 192 ng·h/mL
AUCTlast ([1]; male, 1.5 mg/kg): 183 ng·h/mL
Cmax ([1]; male, 1.5 mg/kg): 18.0 ng/mL
T1/2 ([1]; male, 1.5 mg/kg): 5.27 h
Tmax ([1]; male, 1.5 mg/kg): 1.00 h
AUC(0-inf) ([1]; male, 3 mg/kg): 518 ng·h/mL
AUCTlast ([1]; male, 3 mg/kg): 476 ng·h/mL
Cmax ([1]; male, 3 mg/kg): 42.7 ng/mL
T1/2 ([1]; male, 3 mg/kg): 6.48 h
Tmax ([1]; male, 3 mg/kg): 1.00 h
AUCTlast ([1]; male, 5 mg/kg): 741 ng·h/mL
T1/2 ([1]; male, 5 mg/kg): 7.67 h
half-life ([2]; mean T1/2 of levcromakalim): 124 to 294 min
half-life ([2]; terminal elimination half-life): 120 to 300 min
concentration at 336 h ([2]; both sexes): < 0.499 ng/mL
AUC(0-inf) ([2]; female, topical or ocular, 0.27 mg/kg): 96.8 ng·h/mL
AUC(0-inf) [2, 3]: 304 ng·h/mL
t1/2 [2, 3]: 2.73 h
half-life ([2]; female, topical or ocular, 3.2 mg, t1/2): 294 min
AUC(0-inf) ([2]; female, topical or ocular, […]): 131 ng·h/mL
AUC(0-inf) ([2]; male, topical or ocular): 111 ng·h/mL
AUC(0-inf) [2, 4]: 185 ng·h/mL
Tmax [2, 4]: 4 h
AUC(0-inf) ([2]; male, topical or ocular, 3.2 mg): 371 ng·h/mL
